According to patent US9216197B2, “Topical formulations of tellurium-containing compounds” (BIOMAS LTD., priority 2006, dated 2015):

Experiments:
[1] = Compatibility with aluminum tube packaging and metal equipment; format: physicochemical; details: any contact with metal equipment
[2] = tested on: rats; details: intravenous and intramuscular administration; cited from earlier work
[3] = Storage of AS101 samples in scintillation glass bottles with aluminum laminated non-sealed caps; format: physicochemical; details: 30 days at ambient temperature, scintillation glass bottle with non-sealed cap
Description: FIGS. 1A-B present images of the content and packaging components of the containers in which the AS101 powder (FIG. 1A) and the […] AS101 […] solution in DMSO (FIG. 1B) were provided, upon 30 days of storage at ambient temperature.
The white crystalline coarse powder was placed in a scintillation glass bottle with a non-sealed cap.
A 20% (by weight) solution of AS101 in DMSO was prepared. The solution appeared as a yellow liquid with a cloudy dispersion evolving upon mixing. […] However, some unidentified particles were observed.

[4] = AS101 solubility profile: solubility and stability (by coloration detection) in various solvents; format: physicochemical; details: hydroxycellulose
[5] = as above; format: physicochemical; details: for Coloration / Solubility: 10% by weight AS101, ambient temperature, after 24 hours
Description: In a search for an improved formulation for topical application, the solubility and stability (by coloration detection) of AS101 in various hydrophilic and lipophilic solvents were determined. Since it is commonly known that topically applied formulations have better skin absorption and feel when the active pharmaceutical ingredient is solubilized or is in a molecular form, a desirable topical formulation should be characterized by high solubility and/or dispersability of the active ingredient therein.
Thus, solutions containing 10% by weight of AS101 in each solvent, were prepared by mixing AS101 in the solvent at ambient temperature.

[6] = Heating the mixture of AS101 and propylene glycol; format: physicochemical
[7] = Microscopic evaluation of samples and polarized light crystallography; format: physicochemical
Text: Microscopic Evaluation of Samples and Polarized Light Crystallography: Formulation Stability Measurements

For `Cl[TeH]1(Cl)(Cl)OCCO1` [AS101, ammonium trichloro(dioxyethylene-O,O′)tellurate], the “Color upon contact with metal equipment” value [1] is given as “dark, black color”, the “LD50 relative to the immunologically effective dose” value [2] is given as 500-1000 folds and the “State of the aluminum laminate cap after storage” value [3] is given as “chemically and physically decomposed”. The “Solution coloration (compatibility)” value [4] was “unacceptable solution coloration”, the Coloration ([5]; 1% acetic acid) was “No” and the Solubility ([5]; 1% acetic acid) was “No”. The Coloration ([5]; Alkyl benzoate) was “No”, the Solubility ([5]; Alkyl benzoate) was “No” and the Coloration ([5]; Arlamol E) was “No”. The Solubility ([5]; Arlamol E) was “No”, the Coloration ([5]; Butyleneglycol) was “No” and the Solubility ([5]; Butyleneglycol) was “Yes”. For the same compound, the Coloration ([5]; DMI) was “No”, the Solubility ([5]; DMI) was “No” and the Coloration ([5]; DMSO) was “No”. For the same compound, the Solubility ([5]; DMSO) was “Yes”, the Coloration ([5]; Glycofurol) was “No” and the Solubility ([5]; Glycofurol) was “Yes”. The Coloration ([5]; Hexylene glycol) was “No”, the Solubility ([5]; Hexylene glycol) was “No” and the Coloration ([5]; IPM) was “No”. The Solubility ([5]; IPM) was “No”, the Coloration ([5]; MCT oil) was “No” and the Solubility ([5]; MCT oil) was “No”. The Coloration ([5]; Mineral oil) was “No”, the Solubility ([5]; Mineral oil) was “No” and the Coloration ([5]; PEG 200) was “No”. For the same compound, the Solubility ([5]; PEG 200) was “Yes”, the Coloration ([5]; PEG 400) was “No” and the Solubility ([5]; PEG 400) was “Yes”. For the same compound, the Coloration ([5]; Propylene Glycol) was “No”, the Solubility ([5]; Propylene Glycol) was “Yes” and the Coloration ([5]; Silicone oil) was “Black”. For the same compound, the Solubility ([5]; Silicone oil) was “No”, the Coloration ([5]; Transcutol) was “No” and the Solubility ([5]; Transcutol) was “Yes”. For the same compound, the “Precipitation or re-crystallization of AS101” value ([5]; amphiphilic glycolic solvents: PEG, butyleneglycol, gycofurol, propylene glycol and TRANSCUTOL, during the tested period) was “no precipitation or re-crystallization”, the “Change upon heating the mixture of AS101 and propylene glycol” value [6] was “no change was observed” and the “Crystals under polarized light” value ([7]; polarized light) was “distinct crystals producing birefrigerence”. The Particle diameter ([7]; powder) was 20-40 microns.
